According to patent US8455532B2, “Pyrazolyl acrylonitrile compounds and uses thereof” (Shenyang Research Institute of Chemical Industry Co., Ltd., priority 2009, dated 2013):
Read-outs that look alike come from different tables or passages of the source. One block for each compound: values may come before it.

Tests used:
[1] = test system: adult spider mites (Tetranychus cinnabarinus); assay: Test against adult spider mite, spray on bean leaves, mortality after 72 h; type: in vivo; conditions: for mortality at 1.25 ppm / mortality at 2.5 ppm / mortality at 5 ppm / mortality at 10 ppm / mortality at 0.63 ppm: Tetranychus cinnabarinus, read-out: Acaricidal activity against adult spider mites (mortality, %)
Procedure: (§1) According to the solubility of test compounds, the compounds are dissolved in acetone or dimethyl sulfoxide, and then diluted with 0.1% aqueous solution of Tween 80 to form 50 ml test liquid, the content of acetone or dimethyl sulfoxide in the total solution is not more than 10%.
The adult spider mites (Tetranychus cinnabarinus) were put into two true leaves of bean plants. After the number of mites were investigated, the solution of certain concentrations of test compounds was sprayed using a sprinkler and repeated three times. Then the leaves were maintained in standard observation room. After 72 h the survival mites in each leaf were observed, and mortality of the mites was determined.
According to above method, the representative compounds of this invention, compound KC, (compound 30 in JP2003201280A, E configuration), KC2 (compound 31 in JP2003201280A, Z configuration) and KC3 (compound 24 in CN101367784A) were chosen to parallel activity test against adult spider mites.

[2] = test system: deutonymph of spider mite (Tetranychus cinnabarinus); assay: Test against deutonymph of spider mite, spray, mortality after 72 h; type: in vivo; conditions: read-out: Acaricidal activity against deutonymph of spider mites (mortality, %)
Procedure: as §1
Ten healthy female adult spider mites (Tetranychus cinnabarinus) were put into two true leaves of bean plants. The adult spider mites were removed after 24 h and the eggs were continued incubating. After ten days, the number of deutonymph were investigated and recorded. The solution of certain concentrations of test compounds was sprayed using a sprinkler and repeated three times. Then the deutonymph of spider mites were maintained in standard observation room. After 72 h, the survival mites in each leaf were observed, and mortality of the mites was determined.
According to above method, high acaricidal compound 5.1, 90.1 in present invention, and known high acaricidal compound KC1 were chosen to parallel activity test against deutonymph of spider mite.

spider mites = assay: Test of systemic activity against spider mite through root absorbtion; type: in vivo; conditions: root dip 24 h, 72 h after infestation
Procedure: The test compounds are dissolved in acetone, and then diluted with 0.1% aqueous solution of Tween 80 to form test solution in different concentration and every treatment was repeated three times. Water is blank control. The 10 mL test compound solution was added into the tube. Two true leaves bean plants were taken and the soil in the root was removed. The bean plant was dipped into the test solution in different concentration. After absorbing 24 h, 30 to 50 spider mites were put onto the true leaves. Then the bean plants were maintained in observation room at 25±1° C. After 72 h, the death and survival mites in each leaf was observed, the mortality of the mites and systemic activity was determined.

[3] = test system: egg of spider mite (Tetranychus cinnabarinus); assay: Test against egg of spider mite, spray, incubation inhibition; type: in vivo; conditions: read-out: Acaricidal activity against eggs of spider mites (incubation inhibition rate, %)
Procedure: as §1
Two true leaves of bean plants were taken and one true leaf was removed. Then ten healthy female adult spider mites were put into the true leaf. The adult spider mites were removed after 24 h and the eggs were investigated. The solution of certain concentrations of test compounds was sprayed using a sprinkler and repeated three times. The untreated eggs were all incubated after 5 days. The unincubation of treated eggs in leaf were observed, and incubation inhibition rate of the eggs were determined.
According to the above method, high acaricidal compound 5.1, 90.1 in present invention, and known high acaricidal compound KC1 were chosen to parallel activity test against eggs of spider mites.

[4] = in JP2003206280A; cited from earlier work
spider mite = conditions: 400 ppm, in CN101367784A; cited from earlier work
[5] = test system: peach aphid (Myzus peisicae Sulzer); assay: Test against peach aphid, spray on cabbage leaves, mortality after 72 h; type: in vivo
Procedure: as §1
The cabbage leaves with peach aphids were taken and after the number of peach aphids were investigated, the solution of certain concentrations of test compounds was sprayed using a sprinkler and repeated three times. Then the leaves were maintained in standard observation room. After 72 h, the survival peach aphids were observed, and mortality of the peach aphids was determined.

melting point: 86 to 88 °C
SMILES: CCn1nc(C)c(C)c1C(O)=C(C#N)c1ccc(C(C)(C)C)cc1 [Compound 39, 3-(1-ethyl-3,4-dimethylpyrazol-5-yl)-2-(4-tertbutylphenyl)-3-hydroxyl-acrylonitrile]

SMILES: CCn1nc(C)c(Cl)c1C(OC(=O)C(C)(C)C)=C(C#N)c1ccc(C(C)(C)C)cc1 [Compound 90.1]
Acaricidal activity against adult spider mites (mortality, %) ([1]; 0.63 ppm, spray): 55%
mortality at 1.25 ppm ([1]; 1.25 ppm, spray): 100%
mortality at 2.5 ppm ([1]; 2.5 ppm, spray): 100%
mortality at 5 ppm ([1]; 5 ppm, spray): 100%
mortality at 10 ppm ([1]; 10 ppm, spray): 100%
mortality at 0.16 ppm ([2]; 0.16 ppm, spray): 82%
mortality at 0.63 ppm ([2]; 0.63 ppm, spray): 90%
mortality at 2.5 ppm ([2]; 2.5 ppm, spray): 100%
Systemic activity against spider mites through root absorbtion (mortality, %) (spider mites; 50 ppm): 66%
Systemic activity against spider mites through root absorbtion (mortality, %) (spider mites; 100 ppm): 98%
Systemic activity against spider mites through root absorbtion (mortality, %) (spider mites; 200 ppm): 100%
inhibition at 2.5 ppm [3]: 73%
inhibition at 5 ppm [3]: 100%
inhibition at 10 ppm [3]: 100%

SMILES: CCn1nc(C)cc1C(OC(=O)C(C)(C)C)=C(C#N)c1ccc(C(C)(C)C)cc1 [Compound 5.2]
Acaricidal activity against adult spider mites (mortality, %) ([1]; 0.63 ppm, spray): 56%
Acaricidal activity against adult spider mites (mortality, %) ([1]; 1.25 ppm, spray): 65%
Acaricidal activity against adult spider mites (mortality, %) ([1]; 2.5 ppm, spray): 87%
Acaricidal activity against adult spider mites (mortality, %) ([1]; 5 ppm, spray): 100%
Acaricidal activity against adult spider mites (mortality, %) ([1]; 10 ppm, spray): 100%

melting point: 96 to 97 °C
SMILES: CCOC(=O)OC(=C(C#N)c1ccc(C(C)(C)C)cc1)c1cc(C)nn1CC [Compound 17.1]

melting point: 70 to 72 °C
SMILES: CCn1nc(C)cc1C(O)=C(C#N)c1ccc(C(C)(C)C)cc1 [Compound 1, 3-(1-ethyl-3-methylpyrazol-5-yl)-2-(4-tertbutylphenyl)-3-hydroxy-acrylonitrile]

SMILES: CCn1nc(C)cc1C(OC(=O)C(C)(C)C)=C(C#N)c1ccc(C(C)(C)C)cc1 [Compound 5.1]
Acaricidal activity against adult spider mites (mortality, %) ([1]; 1.25 ppm, spray): 98%
mortality at 0.63 ppm ([1]; 0.63 ppm, spray): 42%
mortality at 2.5 ppm ([1]; 2.5 ppm, spray): 100%
mortality at 5 ppm ([1]; 5 ppm, spray): 100%
mortality at 10 ppm ([1]; 10 ppm, spray): 100%
mortality at 0.16 ppm ([2]; 0.16 ppm, spray): 94%
mortality at 0.63 ppm ([2]; 0.63 ppm, spray): 100%
mortality at 2.5 ppm ([2]; 2.5 ppm, spray): 100%
inhibition at 2.5 ppm [3]: 66%
inhibition at 5 ppm [3]: 100%
inhibition at 10 ppm [3]: 100%

SMILES: CCn1nc(C)c(C)c1C(OC(=O)C(C)(C)C)=C(C#N)c1ccc(C(C)(C)C)cc1 [Compound 42.1]
Acaricidal activity against adult spider mites (mortality, %) ([1]; 0.63 ppm, spray): 20%
Acaricidal activity against adult spider mites (mortality, %) ([1]; 1.25 ppm, spray): 93%
mortality at 2.5 ppm ([1]; 2.5 ppm, spray): 100%
mortality at 5 ppm ([1]; 5 ppm, spray): 100%
mortality at 10 ppm ([1]; 10 ppm, spray): 100%

SMILES: Cc1nn(C)c(/C(OC(=O)C(C)(C)C)=C(/C#N)c2ccc(C(C)(C)C)cc2)c1C [KC2, reference compound]
mortality at 1.25 ppm [1]: 0%
mortality at 2.5 ppm [1]: 55%
mortality at 5 ppm [1]: 100%
mortality at 10 ppm [1]: 100%

SMILES: CCn1nc(C)c(C)c1C(OC(=O)C1CC1)=C(C#N)c1ccc(C(C)(C)C)cc1 [Compound 44.2]
mortality at 0.63 ppm ([1]; 0.63 ppm, spray): 65%
mortality at 1.25 ppm ([1]; 1.25 ppm, spray): 97%
mortality at 2.5 ppm ([1]; 2.5 ppm, spray): 100%
mortality at 5 ppm ([1]; 5 ppm, spray): 100%
mortality at 10 ppm ([1]; 10 ppm, spray): 100%

SMILES: CCn1nc(C)c(Cl)c1C(OC(=O)C(C)(C)C)=C(C#N)c1ccc(C(C)(C)C)cc1 [Compound 90.2]
Acaricidal activity against adult spider mites (mortality, %) ([1]; 0.63 ppm, spray): 28%
Acaricidal activity against adult spider mites (mortality, %) ([1]; 1.25 ppm, spray): 100%
Acaricidal activity against adult spider mites (mortality, %) ([1]; 2.5 ppm, spray): 100%
Acaricidal activity against adult spider mites (mortality, %) ([1]; 5 ppm, spray): 100%
Acaricidal activity against adult spider mites (mortality, %) ([1]; 10 ppm, spray): 100%

SMILES: CCn1nc(C)c(C)c1C(OC(=O)C(C)(C)C)=C(C#N)c1ccc(C(C)(C)C)cc1 [Compound 42.2]
Acaricidal activity against adult spider mites (mortality, %) ([1]; 0.63 ppm, spray): 51%
Acaricidal activity against adult spider mites (mortality, %) ([1]; 1.25 ppm, spray): 70%
Acaricidal activity against adult spider mites (mortality, %) ([1]; 2.5 ppm, spray): 100%
Acaricidal activity against adult spider mites (mortality, %) ([1]; 5 ppm, spray): 100%
Acaricidal activity against adult spider mites (mortality, %) ([1]; 10 ppm, spray): 100%

SMILES: CCOC(=O)OC(=C(C#N)c1ccc(C(C)(C)C)cc1)c1c(Cl)c(C)nn1CC [Compound 101.1]
mortality at 1.25 ppm ([1]; 1.25 ppm, spray): 50%
mortality at 2.5 ppm ([1]; 2.5 ppm, spray): 91%
mortality at 5 ppm ([1]; 5 ppm, spray): 100%
mortality at 10 ppm ([1]; 10 ppm, spray): 100%

SMILES: CCOC(=O)OC(=C(C#N)c1ccc(C(C)(C)C)cc1)c1c(C)c(C)nn1CC [Compound 54.1]
mortality at 1.25 ppm ([1]; 1.25 ppm, spray): 100%
mortality at 2.5 ppm ([1]; 2.5 ppm, spray): 100%
mortality at 5 ppm ([1]; 5 ppm, spray): 100%
mortality at 10 ppm ([1]; 10 ppm, spray): 100%

SMILES: Cc1nn(C)c(/C(OC(=O)C(C)(C)C)=C(\C#N)c2ccc(C(C)(C)C)cc2)c1C [KC1, cyenopyrafen, reference compound]
mortality at 1.25 ppm [1]: 30%
mortality at 2.5 ppm [1]: 85%
mortality at 5 ppm [1]: 100%
mortality at 10 ppm [1]: 100%
mortality at 0.16 ppm [2]: 20%
mortality at 0.63 ppm [2]: 70%
mortality at 2.5 ppm [2]: 82%
insecticidal and acaricidal activity [4]: good insecticidal and acaricidal activity
Systemic activity against spider mites through root absorbtion (mortality, %) (spider mites; 50 ppm): 0%
Systemic activity against spider mites through root absorbtion (mortality, %) (spider mites; 100 ppm): 0%
Systemic activity against spider mites through root absorbtion (mortality, %) (spider mites; 200 ppm): 0%
inhibition at 2.5 ppm [3]: 7%
inhibition at 5 ppm [3]: 84%
inhibition at 10 ppm [3]: 100%

SMILES: CCc1nn(C)c(/C(OC(C)=O)=C(\C#N)c2ccc(C(C)(C)C)cc2)c1Cl [KC3, reference compound]
mortality at 10 ppm [1]: 5%
mortality against spider mite (spider mite): more than 80%

SMILES: CCn1nc(C)c(F)c1C(O)=C(C#N)c1ccc(C(C)(C)C)cc1 [Compound 81, 3-(1-ethyl-4-fluoro-3-methylpyrazol-5-yl)-2-(4-tertbutylphenyl)-3-hydroxy-acrylonitrile]
mortality at 600 ppm [5]: 60%

SMILES: CCn1nc(C)c(C)c1C(OC(=O)C1CCC1)=C(C#N)c1ccc(C(C)(C)C)cc1 [Compound 50.1]
mortality at 0.63 ppm ([1]; 0.63 ppm, spray): 93%
mortality at 1.25 ppm ([1]; 1.25 ppm, spray): 100%
mortality at 2.5 ppm ([1]; 2.5 ppm, spray): 100%
mortality at 5 ppm ([1]; 5 ppm, spray): 100%
mortality at 10 ppm ([1]; 10 ppm, spray): 100%
